Assay results as given in paper PMC8509773, “3-Pyridinylidene Derivatives of Chemically Modified Lupane and Ursane Triterpenes as Promising Anticancer Agents by Targeting Apoptosis” (International Journal of Molecular Sciences, 2021).
Read-outs that look alike come from different tables or passages of the source. Marks after values point to notes of the source that are not given here.

Experiments:
Bcl-2 gene [1] = assay: rtPCR gene expression in RPMI cells; assay type: cell-based, human
[2] = system: HaCaT—human keratinocytes; assay: MTT cytotoxicity assay for healthy human cells; assay type: cell-based; details: 48 h
Description: (§1) The in vitro cytotoxicity was determined by means of (4,5-dimethylthiazol-2-yl)-2,5-diphenyltetrazolium bromide (MTT) method. In brief, HaCaT, 1BR3 cells were seeded in 96-well plates at an initial density of […] and allowed to attach. Next, the old medium was removed and a fresh one was added containing five concentrations (100 µM, 10 µM, 1 µM, 0.1 µM, and 0.01 µM) of the tested compounds 6 and 7 after which cells were incubated for 48 h. The control cells were treated with the same amount of DMSO, the highest concentration of DMSO present in the medium being 0.5%. A volume of […] MTT reagent (5 mg/mL) was added in each well. During a 4 h contact period, the intact mitochondrial reductase converted and precipitated MTT as blue crystals. The precipitated crystals were dissolved in […] of lysis solution provided by the manufacturer (Sigma-Aldrich). Finally, the reduced MTT was spectrophotometrically analyzed at 570 nm, using a microplate reader (xMark Microplate Spectrophotometer, Bio-Rad, Hercules, CA, USA). GI50 was calculated for each healthy cell line.

1BR3 human fibroblasts = assay: MTT cytotoxicity assay for healthy human cells; assay type: cell-based; details: 1BR3 healthy cells, 48 h
Description: as §1

Bcl-XL gene = assay: rtPCR gene expression in A375 cells; assay type: cell-based, human
From the text: (§2) We applied rtPCR techniques in order to investigate the effect of our two compounds on the anti-apoptotic Bcl-XL and Bcl-2 genes as well as the proapoptotic Bak and Bad genes (Table 4). […] Therefore, we may presume that the apoptotic mechanism of both compounds against the A375 cells is not mediated by the tested genes or that alterations in their ratio are the underlying mechanism.

Bcl-2 gene [3] = assay: rtPCR gene expression in A375 cells; assay type: cell-based, human
From the text: as §2

Bad gene [4] = assay: rtPCR gene expression in A375 cells; assay type: cell-based, human
From the text: as §2

Bak gene = assay: rtPCR gene expression in A375 cells; assay type: cell-based, human
From the text: as §2

Bad gene [5] = assay: rtPCR gene expression in Sk-Mel-28 cells; assay type: cell-based, human
RPMI melanoma cells = assay: DAPI staining assay; assay type: cell-based, human; details: 24 h
Description: (§3) For this purpose, the melanoma cell lines selected were A375, RPMI, and SK-MEL-28, given that these three lines have very good correlation coefficient scores with tumor cells originating from a wide range of malignant tumors, based on transcriptional similarity. This feature can also lead to increased clinical applicability potential for the tested substances. The two compounds were tested against three human melanoma cell lines: A375, RPMI, and SK-MEL-28 melanoma cell lines by applying 0.1, 1, and 5 μM solutions, respectively. 4′,6-Diamidino-2-phenylindole (DAPI) is a DNA-specific marker which allows the direct fluorescent blue staining of nuclei against a dark background, widely used in life sciences research. In effect, the DAPI stain binds to chromatin within the nuclei and provides their clear outline under the blue light (405 nm) while the cytoplasmic medium remains non-fluorescent. Moreover, due to its lack of interference with DNA–linker interactions, DAPI stain can provide fine details of nuclei’ shapes instead of merely highlighting their centers which contain the highest concentration of nucleic acids.
(§4) The DAPI assay was performed on three human melanoma cell lines: A375, RPMI, and SK-MEL-28. The cells were cultured in 24-well plates at 2x10^5 cells/well; compounds 6 and 7 in three different concentrations (0.1, 1, and 5 μM); and three DMSO concentrations (0.1, 1, and 5 μM) were used to stimulate cells. The immunofluorescent staining technique was performed according to a previously described protocol and adapted to our laboratory conditions. Thus, after 24 h of stimulation, the cells were fixed with 4% paraformaldehyde and incubated at room temperature for 1 h. Cell permeability was 30 min later performed with 2% Triton X solution in phosphate-buffered saline (PBS). The 300 nM 4’,6-diamidino-2-phenylindole (DAPI) staining was used to visualize cell nuclei under the fluorescence microscope at 40x magnification using CellSens V1.15 software (Olympus, Tokyo, Japan) and Image J software.

SK-MEL-28 melanoma cells = assay: DAPI staining assay; assay type: cell-based, human; details: 24 h
Description: as §3, §4

A375 melanoma cells = assay: DAPI staining assay; assay type: cell-based, human; details: 24 h
Description: as §3, §4

Compound | Bcl-2 gene expression, Mean (Bcl-2 gene [1]) | GI50 [2] | GI50 ([2]; Homo sapiens, HaCaT) | GI50 (1BR3 human fibroblasts) | GI50 (1BR3 human fibroblasts; Homo sapiens, Fibroblast) | Bcl-XL gene expression, Mean (Bcl-XL gene) | Bcl-2 gene expression, Mean (Bcl-2 gene [3]) | Bad gene expression, Mean (Bad gene [4]) | Bak gene expression, Mean (Bak gene) | Bad gene expression, Mean (Bad gene [5]) | Nuclear changes, DAPI staining (RPMI melanoma cells; 0.1 μM) | Nuclear changes, DAPI staining (RPMI melanoma cells; 5 μM) | Nuclear changes, DAPI staining (SK-MEL-28 melanoma cells; SK-Mel-28, 0.1 μM) | Nuclear changes, DAPI staining (SK-MEL-28 melanoma cells; SK-Mel-28, 5 μM) | Nuclear changes, DAPI staining (A375 melanoma cells; A375, 0.1 μM) | Nuclear changes, DAPI staining (A375 melanoma cells; A375, 1 μM) | Nuclear changes, DAPI staining (A375 melanoma cells; A375, 5 μM) | also measured
C[C@H]1[C@@H]2[C@H]3CC[C@@H]4[C@@]5(C)C/C(=C\c6cccnc6)C(=O)C(C)(C)[C@@H]5CC[C@@]4(C)[C@]3(C)CC[C@]23CO[C@@]1(C)[C@@H](C(=O)/C=C/c1cccnc1)C3 [Compound 6, 3-Oxo-2-(3-pyridinylidene)-21-[3-(2E-pyridinyl)-prop-2-en-1-one]-20β,28-epoxy-18α,19βH-ursane] | 0.246 ** | 18.6 µM | > 15 µM | 23.1 µM | > 15 µM | 0.286 * | 2.570 | downregulated | downregulated | 15.716 ** | massive nucleus condensation and fragmentation | occurrence of nuclear residues | massive nucleus condensation and fragmentation | occurrence of nuclear residues | nuclear fragmentation | nuclear fragmentation | chromatin becomes condensed | Bad gene expression, Mean (Bad gene [4]; listed as compound 6): 0.150 *; Bak gene expression, Mean (Bak gene; listed as compound 6): 0.546 ***
COC(=O)[C@]12CC[C@@H](C(=O)/C=C/c3cccnc3)[C@@H]1[C@H]1CC[C@@H]3[C@@]4(C)C/C(=C\c5cccnc5)C(=O)C(C)(C)[C@@H]4CC[C@@]3(C)[C@]1(C)CC2 [Compound 7, methyl 2,30-bis-(3-pyridinylidene)-3,20-dioxo-lup-28-oate] | 0.313 | 15.4 µM | > 15 µM | 20.9 µM | > 15 µM | upregulation | upregulation | upregulation | upregulation | 65.946 *** | slight nucleus fragmentation | nuclear fragmentation and chromatin condensation | slight nucleus fragmentation | nuclear fragmentation and chromatin condensation | nucleus fragmentation | condensation of chromatin | condensation of chromatin | Bcl-XL gene expression, Mean (Bcl-XL gene; listed as compound 7): 28.893 **; Bcl-2 gene expression, Mean (Bcl-2 gene [3]; listed as compound 7): 81.120 ***; Bad gene expression, Mean (Bad gene [4]; listed as compound 7): 155.433 *; Bak gene expression, Mean (Bak gene; listed as compound 7): 17.743 ***; Nuclear changes, DAPI staining (RPMI melanoma cells; 1 μM): nuclear fragmentation and chromatin condensation; Nuclear changes, DAPI staining (SK-MEL-28 melanoma cells; SK-Mel-28, 1 μM): nuclear fragmentation and chromatin condensation
